Experimental data: patent US20260139005A1 (priority 2022, published 2026)
Where a SMILES comes first, the peptide text is derived from it.

Legend:
[1] = system: Botrytis cinerea; experiment: MIC of NCR13 and alanine scanning variants, 96-well plate / resazurin assay; type: cell-based; conditions: 48 h
Experimental: Antifungal activity of NCR13_AlaV1-V5 was assessed at different concentrations using a 2-fold dilution series of each peptide. Antifungal activity of each peptide was determined spectrophotometrically using the 96-well plate assay. Around 45 μL of each peptide at different concentrations was added to each well of the microtiter plate containing 45 μL of ˜[…] spore suspension. The quantitative fungal growth inhibition was determined by measuring the absorbance at 595 nm using a (Tecan Infinite M200 ProTecan Systems Inc., San Jose, CA) microplate reader after 48 h. The fungal cell viability was determined by the resazurin cell viability assay. After incubation of the pathogen/peptide mixture for 48 h, 10 μl of 0.1% resazurin solution was added to each well. After incubation of the mixture overnight, a change in the color of the resazurin dye from blue to pink or colorless indicated the presence of live fungal cells. The MIC for each peptide was the lowest concentration of each peptide at which no change in blue color occurred.

[2] = system: Botrytis cinerea T-4; experiment: MIC determination, 96-well plate assay with resazurin cell viability readout; type: cell-based
Experimental: The fungal strain of Botrytis cinerea T-4 was cultured on V8 agar plates. Fungal spores were harvested by flooding the fungal growth plates with sterile water. The spore suspension was filtered through two layers of Miracloth, centrifuged at 13,600 rpm for 1 min, washed, and re-suspended in low-salt Synthetic Fungal Medium (SFM) (U.S. Pat. No. 6,316,407, incorporated herein by reference in its entirety). The spore suspension was adjusted to the desired spore count using a hemocytometer.
Antifungal activity of NCR13_V7 (SEQ ID NO: 9) and NCR13_V9 (SEQ ID NO: 11) was assessed at different concentrations using a 2-fold dilution series of each peptide. Antifungal activity of each peptide was determined spectrophotometrically using the 96-well plate assay (Kereszt et al., Front. Plant Sci. 9, 1026 (2018)). Around 45 μL of each peptide at different concentrations was added to each well of the microtiter plate containing 45 μL of ˜10^5 spores/ml spore suspension. The quantitative fungal growth inhibition was determined by measuring the absorbance at 595 nm using a (Tecan Infinite M200 ProTecan Systems Inc., San Jose, CA) microplate reader after 48 h. The fungal cell viability was determined by the resazurin cell viability assay (Tiricz et al., Appl. Environ. Microbiol. 79, 6737-6746 (2013);. Balogh et al., Acta Microbiol. Immunol. Hung. 61, 229-239 (2014)). […]

[3] = system: B. cinerea; experiment: Semi-in planta drop-inoculation antifungal assay on detached N. benthamiana leaves (gray mold); type: in vivo, Botrytis cinerea on Nicotiana benthamiana; conditions: B. cinerea spores, peptide 0.75, 1.5, 3 and 6 μM, 48 h

## CC[C@H](C)[C@H](NC(=O)[C@H](CS)NC(=O)[C@H](C)NC(=O)[C@H](C)NC(=O)[C@H](C)NC(=O)[C@H](CCCCN)NC(=O)[C@@H]1CCCN1C(=O)[C@H](CCCCN)NC(=O)[C@H](CCCNC(=N)N)NC(=O)[C@H](CS)NC(=O)[C@H](C)NC(=O)[C@H](Cc1ccccc1)NC(=O)[C@H](CCCCN)NC(=O)[C@H](CCCCN)NC(=O)[C@H](CS)NC(=O)[C@H](CC(=O)O)NC(=O)[C@H](CCCCN)NC(=O)[C@H](CC(=O)O)NC(=O)[C@H](CO)NC(=O)[C@H](CCC(N)=O)NC(=O)[C@H](CS)NC(=O)[C@@H]1CCCN1C(=O)[C@H](CCCCN)NC(=O)[C@@H](N)[C@@H](C)O)C(=O)N[C@@H](CC(N)=O)C(=O)NCC(=O)N[C@@H](Cc1ccccc1)C(=O)N[C@@H](CS)C(=O)N[C@@H](CCCCN)C(=O)N[C@@H](CS)C(=O)N[C@H](C(=O)N[C@@H](CCCNC(=N)N)C(=O)O)C(C)C [NCR13_AlaV4] (H-TKPCQSDKDCKKFACRKPKAAACINGFCKCVR-OH; N-terminus and C-terminus assumed)
[1]
  MIC (μM) Botrytis cinerea: Inactive

## N=C(N)NCCC[C@H](NC(=O)[C@H](CS)NC(=O)[C@H](Cc1c[nH]c2ccccc12)NC(=O)[C@H](Cc1ccccc1)NC(=O)[C@H](CCCCN)NC(=O)[C@@H](N)CCCCN)C(=O)N[C@@H](CCCCN)C(=O)N1CCC[C@H]1C(=O)N[C@@H](CCCCN)C(=O)N[C@@H](Cc1c[nH]c2ccccc12)C(=O)N1CCC[C@H]1C(=O)N[C@@H](CCCCN)C(=O)N[C@@H](CS)C(N)=O [NCR13_V9, KKFWCRKPKWPKC-NH2] (H-KKFWCRKPKWPKC-NH2; N-terminus assumed)
[2]; B. cinerea in SFM
  fold higher antifungal activity than NCR13_V7: 2 fold
[2]; B. cinerea, low-salt Synthetic Fungal Medium (SFM), 48 h
  MIC (μM) in SFM: 1.5 µM
[3]
  reduction of lesion size: reduced the lesion sizes greater than NCR13_V7

## TKPCQSDKDCAAAACRKPKVPKCINGFCKCVR [NCR13_AlaV2]
[1]
  MIC (μM) Botrytis cinerea: Inactive

## TKPCQSDKDCKKFACAAAAVPKCINGFCKCVR [NCR13_AlaV3]
[1]
  MIC (μM) Botrytis cinerea: Inactive
